Test results from paper PMC4198181, “Gold(I) Complexes of 9-Deazahypoxanthine as Selective Antitumor and Anti-Inflammatory Agents” (PLoS ONE, 2014).

Assays:
[1] = test system: HeLa cervix epitheloid carcinoma cells; assay: MTT in vitro cytotoxicity, HeLa; assay type: cell-based, human; conditions: 24 h treatment, read-out: IC50±S.E., HeLa
Protocol: (§1) In vitro cytotoxic activity was determined by the MTT assay in human breast adenocarcinoma (MCF7; ECACC no. 86012803), human osteosarcoma (HOS; ECACC no. 87070202), lung carcinoma (A549; ECACC no. 86012804), malignant melanoma (G361; ECACC no. 88030401), cervix epitheloid carcinoma (HeLa; ECACC no. 93021013), ovarian carcinoma (A2780; ECACC no. 93112519), cisplatin-resistant ovarian carcinoma (A2780R; […] ECACC no 105092802) cancer cell lines, purchased from European Collection of Cell Cultures (ECACC). […] The primary culture of human hepatocytes (HEP220, batch number HEP220819) was obtained from Biopredic International (France). The culture medium was Williams and HAM's F-12 (1∶1) supplemented with penicillin, streptomycin, ascorbic acid, linoleic acid, holo-transferin, ethanolamine, glucagon, insulin, dexamethasone, pyruvate, glucose, glutamine, amphotericin. The medium was enriched for plating with 2% foetal calf serum (v/v). The medium was exchanged for a serum-free medium the day after and the culture was stabilized for additional 24 h. Thereafter, the cells were ready for treatments. […] The MTT assay was performed spectrophotometrically at 540 nm (TECAN, Schoeller Instruments LLC). The cytotoxicity data were expressed as the percentage of viability, where 100% represented the treatments with vehicle (0.1% DMF or 0.1% DMSO). The cytotoxicity data from the cancer cell lines were acquired from three independent experiments (conducted in triplicate) using cells from different passages. The IC50 values were calculated from viability curves. The results are presented as arithmetic means±standard error of the mean (S.E.).

[2] = Interactions with L-cysteine and reduced glutathione by ESI+ MS; assay type: physicochemical; conditions: 20 µM complex, 290 µM cysteine, 6 µM glutathione, methanol/water 1:1
Protocol: The interactions of selected gold(I) complexes 2 and 4, involving the isopropyloxy and benzyloxy substituent on C6 of 9-deazapurine, with the sulfur-containing biomolecules (i.e. L-cysteine and reduced glutathione) were studied by ESI+ mass spectrometry (ESI+ MS). The experiments were carried out using a Thermo Scientific LTQ Fleet Ion-Trap mass spectrometer, in positive ionization mode. The reactions of the representative complexes 2 and 4 were performed in methanol/water mixture (1∶1, v/v) containing the physiological concentrations of L-cysteine and glutathione (at the final concentrations of 290 µM, and 6 µM [63], respectively). The reference system consisted of the solutions of complexes (20 µM) in methanol/water mixture (1∶1, v/v). The flow injection analysis (FIA) method was utilized to introduce the reaction system (5 µL spikes) into the mass spectrometer and pure acetonitrile was used as a mobile phase. The ESI-source was set-up as follows: source voltage (5 kV), the vaporizer temperature (160°C), the capillary temperature (250°C), the sheath gas flow (30 L/min), and auxiliary gas flow rate (10 L/min). The system was calibrated as stated in the manufactured specifications and no further tuning was needed.

[3] = test system: primary culture of human hepatocytes (HEP220); assay: MTT in vitro cytotoxicity, primary human hepatocytes; assay type: cell-based; conditions: for IC50: 24 h treatment, MTT, read-out: IC50±S.E., HEP220 (healthy human hepatocytes)
Protocol: as §1

[4] = test system: MCF7 breast carcinoma cells; assay: MTT in vitro cytotoxicity, MCF7; assay type: cell-based, human; conditions: 24 h treatment, read-out: IC50±S.E., MCF7
Protocol: as §1

IL-1β mRNA = assay: IL-1β gene expression by RT-qPCR in LPS-stimulated THP-1 macrophages; assay type: cell-based, human; conditions: 300 nM, 2 h after LPS, normalised to β-actin
Protocol: For the determination of biological activity, we used the human monocytic leukaemia cell line THP-1 (ECACC, Salisbury, UK). The cells were cultivated at 37°C in the RPMI 1640 medium supplemented with 2 mM L-glutamine, 10% FBS, 100 U/mL of penicillin and 100 µg/mL of streptomycin in a humidified atmosphere containing 5% CO2. Stabilized cells (3rd–15th passage) were split into microtitration plates to get a concentration of 500 000 cells/mL and the differentiation to macrophages was induced by phorbol myristate acetate (PMA) dissolved in dimethyl sulfoxide (DMSO) at the final concentration of 50 ng/ml, and the cells were incubated for 24 h. In comparison with monocytes, differentiated macrophages tend to adhere to the bottoms of the cultivation plates. For next 24 h the cells were incubated with a fresh complete RPMI medium, i.e. containing antibiotics and FBS, without PMA. The medium was then aspirated, and the cells were washed with PBS and cultivated for next 24 hours in serum-free RPMI 1640 medium. These prepared macrophages were used for the detection of inflammatory response.
In the order to evaluate the expression of TNF-α, IL-1β, and β-actin mRNA, total RNA was isolated directly from the LPS-stimulated THP-1 cells. THP-1 macrophages were pretreated with compounds 2, 5, and Auranofin at the concentration of 300 nM or the vehicle (0.1% DMSO) only. After 1 h of the incubation, the inflammatory response was induced by LPS [except for the control cells (CTRL)]. After 2 h of the incubation with LPS, the medium was aspirated and the total RNA was isolated directly from the cells in cultivation plates using a RealTime Ready Cell Lysis Kit (Roche), according to the manufacturer's instructions.
The gene expression was quantified by two-step reverse-transcription quantitative (real-time) PCR (RT-qPCR). The reverse transcription step was performed by Transcriptor Universal cDNA Master using cell lysate as a template. […] The results were normalized to the amount of ROX reference dye, and the change in gene expression was determined by the 2^−ΔΔCT method. […]

| Structure (SMILES) | IC50 [1] [µM] | time within which interaction intermediates with cysteine/glutathione were detected (N-ligand exchange) [2] [h] | IC50 [3] [µM] | times lower cytotoxicity against healthy human cells (HEP220) than cancer cell lines ([3]; complex 2: MCF7 vs. HEP220) [times] | IC50 [4] [nM] | effect on IL-1β mRNA transcription (IL-1β mRNA) |
| --- | --- | --- | --- | --- | --- | --- |
| CC(C)Oc1ncnc2cc[n]([Au])c12.c1ccc(P(c2ccccc2)c2ccccc2)cc1 [complex 2, [Au(L2)(PPh3)]] | 16 ± 0.2 | ≤ 1 | 18.5 ± 1.5 | ~30 | 600 ± 100 | significantly reduce the transcription |
| [Au][n]1ccc2ncnc(OCCc3ccccc3)c21.c1ccc(P(c2ccccc2)c2ccccc2)cc1 [complex 5] | 22.8 ± 0.5 |  | 19 ± 1.8 |  | > 50000 | significantly reduce the transcription |
